Several values for one entry are separate records, joined by “and”; a condition that tells them apart may be missing. Equal entries are not always repeated.
Tests used:
Format in all cases: in vivo, hypogonadal men
[1] = Example 4 food effects study of Formulation B
Experimental: Subjects were randomized to receive the drug in the fasting state or 30 minutes after consumption of meals containing ˜800 calories with specific amounts of fat (wt %): very low fat (6-10%); low fat (20%); “normal” diet fat (30%); or high fat (50%). The “normal” diet was, a priori, established as the comparator (i.e., reference diet) for purposes of statistical comparisons. Serial blood samples were collected for a total of 24 hours after drug administration to determine serum testosterone and dihydrotestosterone (DHT) levels by liquid chromatography-mass spectroscopy (LC/MS/MS).

[2] = Example 1 single-day pharmacokinetic study of Formulation B; settings: 200 mg T equivalents BID with food
Experimental: The study was designed as an open-label, single-day dosing, sequential, cross-over, pharmacokinetic study.
The doses were administered as capsules to subjects five minutes after a meal (breakfast for QD, and breakfast and dinner for BID).

[3] = Optimal sampling time: pooled steady-state serum T data of LOT-AA and LOT-BB, 200 mg T BID as TU
Experimental: An investigation was conducted to identify a single optimal sampling time for monitoring the responsiveness of hypogonadal male patients subjects to chronic BID dosing of T using a SEDDS formulation of TU. Concentration data and derived pharmacokinetic parameters for 41 subjects from two studies (LOT-AA and LOT-BB) where subjects received 200 mg BID of T, as TU, for at least seven days were used in this investigation. Correlation and contingency table approaches were used in the investigation.
Concentration data and pharmacokinetic parameters from hypogonadal male subjects that participated in study LOT-AA and study LOT-BB were combined into a single data set. From study LOT-AA, only the information from Day 7 of Treatment 3 (8 days of treatment with 200 mg BID of T, as TU) was used. Study LOT-AA contributed data from 26 subjects treated for 7 days, and study LOT-BBBB contributed data from 15 subjects treated for 28 days with 200 mg BID of T, as TU. Combining of the data from these two groups of subjects is supported by the finding from study LOT-BBBB that T steady-state is reached in 5-7 days.
The sample collection times for these two studies both spanned a 12-hour window, but not all sample collection times were common to both studies. LOT-AA used sample collection times of 0, 1, 2, 4, 8 and 12 hours; LOT-BBBB used sample collection times of 0, 1.5, 3, 4, 5, 6, 8 and 12 hours. The current analysis used the superset of the combined set of collection times (0, 1, 1.5, 2, 3, 4, 5, 6, 8 and 12 hours). Concentration values that were missing for a subject in either of the data sets at a particular sample collection time were estimated by linear interpolation, using the existing nearest neighbor concentration values for that subject, i.e., interpolation of missing data was subject-specific.

[4] = LOT-AA subjects, estimated by linear interpolation
[5] = LOT-BB subjects, estimated by linear interpolation

CCCCCCCCCCC(=O)O[C@H]1CC[C@H]2[C@@H]3CCC4=CC(=O)CC[C@]4(C)[C@H]3CC[C@]12C [TU, testosterone undecanoate]
Difference in serum T response ([1]; high-fat vs normal-fat meal): < 30%
90% confidence interval, serum T PK parameters ([1]; low-fat vs normal fat diet, single 300 mg T dose): 85-125%
Subjects achieving a serum T Cavg above 300 ng/dL [2]: 75%
T concentration 3 hr, individual subjects [3, 4]: 777 ng/dL and 785 ng/dL and 590 ng/dL and 433 ng/dL and 984 ng/dL and 1030 ng/dL and 1345 ng/dL and 936 ng/dL and 164 ng/dL and 183 ng/dL and 193 ng/dL and 353 ng/dL and 844 ng/dL and 700 ng/dL and 411 ng/dL and 891 ng/dL and 438 ng/dL and 271 ng/dL and 243 ng/dL and 160 ng/dL and 415 ng/dL and 308 ng/dL and 1270 ng/dL and 918 ng/dL and 837 ng/dL and 546 ng/dL
T concentration 5 hr, individual subjects [3, 4]: 978 ng/dL and 778 ng/dL and 686 ng/dL and 595 ng/dL and 865 ng/dL and 847 ng/dL and 1289 ng/dL and 886 ng/dL and 209 ng/dL and 248 ng/dL and 324 ng/dL and 311 ng/dL and 1065 ng/dL and 788 ng/dL and 418 ng/dL and 1012 ng/dL and 579 ng/dL and 427 ng/dL and 450 ng/dL and 205 ng/dL and 380 ng/dL and 503 ng/dL and 1533 ng/dL and 740 ng/dL and 768 ng/dL and 969 ng/dL
T concentration 6 hr, individual subjects [3, 4]: 856 ng/dL and 606 ng/dL and 540 ng/dL and 590 ng/dL and 690 ng/dL and 653 ng/dL and 1048 ng/dL and 703 ng/dL and 232 ng/dL and 248 ng/dL and 423 ng/dL and 314 ng/dL and 789 ng/dL and 648 ng/dL and 415 ng/dL and 1145 ng/dL and 503 ng/dL and 539 ng/dL and 622 ng/dL and 216 ng/dL and 367 ng/dL and 639 ng/dL and 1296 ng/dL and 597 ng/dL and 588 ng/dL and 1283 ng/dL
T concentration […], individual subjects [3, 4]: 371 ng/dL and 435 ng/dL and 297 ng/dL and 272 ng/dL and 632 ng/dL and 595 ng/dL and 845 ng/dL and 802 ng/dL and 162 ng/dL and 87 ng/dL and 150 ng/dL and 427 ng/dL and 214 ng/dL and 312 ng/dL and 454 ng/dL and 1081 ng/dL and 267 ng/dL and 241 ng/dL and 204 ng/dL and 116 ng/dL and 492 ng/dL and 237 ng/dL and 757 ng/dL and 654 ng/dL and 457 ng/dL and 403 ng/dL
T concentration 1 hr, individual subjects ([3]; LOT-AA subjects, observed): 287 ng/dL and 251 ng/dL and 246 ng/dL and 280 ng/dL and 335 ng/dL and 170 ng/dL and 530 ng/dL and 801 ng/dL and 183 ng/dL and 57 ng/dL and 140 ng/dL and 456 ng/dL and 80 ng/dL and 153 ng/dL and 506 ng/dL and 1260 ng/dL and 314 ng/dL and 256 ng/dL and 199 ng/dL and 105 ng/dL and 547 ng/dL and 225 ng/dL and 744 ng/dL and 354 ng/dL and 187 ng/dL and 368 ng/dL
T concentration 2 hr, individual subjects ([3]; LOT-AA subjects, observed): 454 ng/dL and 619 ng/dL and 347 ng/dL and 264 ng/dL and 928 ng/dL and 1020 ng/dL and 1160 ng/dL and 802 ng/dL and 140 ng/dL and 116 ng/dL and 159 ng/dL and 397 ng/dL and 348 ng/dL and 471 ng/dL and 402 ng/dL and 902 ng/dL and 219 ng/dL and 226 ng/dL and 208 ng/dL and 126 ng/dL and 437 ng/dL (2×) and 248 ng/dL and 770 ng/dL and 953 ng/dL and 726 ng/dL
T concentration 1 hr, individual subjects [3, 5]: 545 ng/dL and 531 ng/dL and 279 ng/dL (2×) and 92 ng/dL and 152 ng/dL and 161 ng/dL and 234 ng/dL and 446 ng/dL and 869 ng/dL and 248 ng/dL and 365 ng/dL and 127 ng/dL and 233 ng/dL and 271 ng/dL
T concentration 2 hr, individual subjects [3, 5]: 506 ng/dL and 725 ng/dL and 490 ng/dL and 149 ng/dL and 168 ng/dL and 394 ng/dL and 281 ng/dL and 812 ng/dL and 770 ng/dL and 461 ng/dL and 274 ng/dL and 166 ng/dL and 350 ng/dL and 346 ng/dL and 349 ng/dL
T concentration 3 hr, individual subjects ([3]; LOT-BB subjects, observed): 425 ng/dL and 778 ng/dL and 723 ng/dL and 243 ng/dL and 241 ng/dL and 873 ng/dL and 360 ng/dL and 1440 ng/dL and 684 ng/dL and 908 ng/dL and 179 ng/dL and 259 ng/dL and 553 ng/dL and 461 ng/dL and 445 ng/dL
T concentration 5 hr, individual subjects ([3]; LOT-BB subjects, observed): 486 ng/dL and 1020 ng/dL and 332 ng/dL and 125 ng/dL and 1230 ng/dL and 714 ng/dL and 1270 ng/dL and 1690 ng/dL and 514 ng/dL and 999 ng/dL and 214 ng/dL and 458 ng/dL and 1330 ng/dL and 289 ng/dL and 507 ng/dL
T concentration 6 hr, individual subjects ([3]; LOT-BB subjects, observed): 671 ng/dL and 1660 ng/dL and 292 ng/dL and 238 ng/dL and 828 ng/dL and 773 ng/dL and 972 ng/dL and 1340 ng/dL and 593 ng/dL and 538 ng/dL and 620 ng/dL and 351 ng/dL and 1420 ng/dL and 320 ng/dL and 441 ng/dL
T concentration […], individual subjects ([3]; LOT-BB subjects, observed): 547 ng/dL and 699 ng/dL and 374 ng/dL and 102 ng/dL and 132 ng/dL and 155 ng/dL and 242 ng/dL and 498 ng/dL and 813 ng/dL and 237 ng/dL and 321 ng/dL and 120 ng/dL and 249 ng/dL and 288 ng/dL and 301 ng/dL
C(0), Max ([3]; serum T, N 41): 1600 ng/dL
C(0), Mean ([3]; serum T, N 41): 363 ng/dL
C(0), Median ([3]; serum T, N 41): 244 ng/dL
C(0), Min ([3]; serum T, N 41): 61.0 ng/dL
C(1), Max ([3]; serum T, N 41): 1260 ng/dL
C(1), Mean ([3]; serum T, N 41): 338 ng/dL
C(1), Median ([3]; serum T, N 41): 271 ng/dL
C(1), Min ([3]; serum T, N 41): 57.3 ng/dL
C(1.5), Max ([3]; serum T, N 41): 1081 ng/dL
C(1.5), Mean ([3]; serum T, N 41): 391 ng/dL
C(1.5), Median ([3]; serum T, N 41): 312 ng/dL
C(1.5), Min ([3]; serum T, N 41): 86.6 ng/dL
C(2), Max ([3]; serum T, N 41): 1160 ng/dL
C(2), Mean ([3]; serum T, N 41): 466 ng/dL
C(2), Median ([3]; serum T, N 41): 397 ng/dL
C(2), Min ([3]; serum T, N 41): 116 ng/dL
C(3), Max ([3]; serum T, N 41): 1440 ng/dL
C(3), Mean ([3]; serum T, N 41): 600 ng/dL
C(3), Median ([3]; serum T, N 41): 546 ng/dL
C(3), Min ([3]; serum T, N 41): 160 ng/dL
C(4), Max ([3]; serum T, N 41): 1770 ng/dL
C(4), Mean ([3]; serum T, N 41): 745 ng/dL
C(4), Median ([3]; serum T, N 41): 720 ng/dL

Reference: US20210220374A1, “METHODS OF TREATING TE[…]” (Clarus Therapeutics, Inc., priority 2013, published 2021)
